Measured values as given in the supplement of paper PMC10307832.

Assays:
Test in all cases: relative viability (nuclei count vs DMSO), 5 days (fraction); higher = more cells survive
[1] = tested on: HCC-827
Summary of the method: (§1)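 After 5 days of treatment, lung cancer cells in 1536-well plates were fixed and stained in a single step (final 0.05% Triton X-100, 1% formaldehyde, 1 ug/ml Hoechst) and their nuclei counted on 4× images. Treatment had been applied by pin tool the day after seeding as one drug alone or as a fixed anchor-drug dose with five library-drug doses (not always all listed) in √10 steps. Relative viability is the nuclei count of treated wells divided by that of vehicle wells, and values are medians of duplicate plates.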

[2] = tested on: HCC-366
Summary of the method: as §1

[3] = tested on: LK-2
Summary of the method: as §1

[4] = tested on: EKVX
Summary of the method: as §1

[5] = tested on: LU99A
Summary of the method: as §1

[6] = tested on: NCI-H1755
Summary of the method: as §1

[7] = tested on: NCI-H1734
Summary of the method: as §1

[8] = tested on: NCI-H1648
Summary of the method: as §1

[9] = tested on: LC-2-ad
Summary of the method: as §1

[10] = tested on: RERF-LC-KJ
Summary of the method: as §1

[11] = tested on: 201T
Summary of the method: as §1

[12] = tested on: HCC-15
Summary of the method: as §1

[13] = tested on: NCI-H2347
Summary of the method: as §1

[14] = tested on: HCC-78
Summary of the method: as §1

[15] = tested on: NCI-H441
Summary of the method: as §1

[16] = tested on: NCI-H1944
Summary of the method: as §1

[17] = tested on: NCI-H1915
Summary of the method: as §1

[18] = tested on: BEN
Summary of the method: as §1

[19] = tested on: PC-3 [JPC-3]
Summary of the method: as §1

[20] = tested on: SW 900
Summary of the method: as §1

Which results are given for `C=C1C(=O)O[C@@H](CCCCCCCC)[C@@H]1C(=O)O` [C-75] + NC(=O)Nc1cc(-c2cccc(F)c2)sc1C(=O)N[C@H]1CCCNC1 [AZD7762] (partner 0.2 µM)?
relative viability ([1]; first compound 0.253 µM): 0.245; relative viability ([1]; first compound 0.8 µM): 0.201; relative viability ([1]; first compound 8 µM): 0.355; relative viability ([2]; first compound 0.08 µM): 0.271; relative viability ([2]; first compound 0.253 µM): 0.306; relative viability ([2]; first compound 0.8 µM): 0.227; relative viability ([2]; first compound 2.53 µM): 0.152; relative viability ([2]; first compound 8 µM): 0.52; relative viability ([3]; first compound 0.08 µM): 0.355; relative viability ([3]; first compound 0.253 µM): 0.699; relative viability ([3]; first compound 0.8 µM): 0.299; relative viability ([3]; first compound 2.53 µM): 0.289; relative viability ([3]; first compound 8 µM): 0.255; relative viability ([4]; first compound 0.08 µM): 0.683; relative viability ([4]; first compound 0.253 µM): 0.765; relative viability ([4]; first compound 0.8 µM): 0.498; relative viability ([4]; first compound 8 µM): 0.51; relative viability ([5]; first compound 0.08 µM): 0.36; relative viability ([5]; first compound 0.253 µM): 0.529; relative viability ([5]; first compound 0.8 µM): 0.33; relative viability ([5]; first compound 2.53 µM): 0.284; relative viability ([5]; first compound 8 µM): 0.401; relative viability ([6]; first compound 0.08 µM): 0.42; relative viability ([6]; first compound 0.253 µM): 0.473; relative viability ([6]; first compound 0.8 µM): 0.397; relative viability ([6]; first compound 2.53 µM): 0.405; relative viability ([6]; first compound 8 µM): 0.416; relative viability ([7]; first compound 0.08 µM): 0.562; relative viability ([7]; first compound 0.253 µM): 0.587; relative viability ([7]; first compound 0.8 µM): 0.488; relative viability ([7]; first compound 2.53 µM): 0.278; relative viability ([7]; first compound 8 µM): 0.664; relative viability ([8]; first compound 0.08 µM): 0.75; relative viability ([8]; first compound 0.253 µM): 1.2; relative viability ([8]; first compound 0.8 µM): 0.712; relative viability ([8]; first compound 8 µM): 0.622; relative viability ([9]; first compound 0.08 µM): 0.833; relative viability ([9]; first compound 0.253 µM): 0.813; relative viability ([9]; first compound 0.8 µM): 0.819; relative viability ([9]; first compound 2.53 µM): 0.728; relative viability ([9]; first compound 8 µM): 0.853; relative viability ([10]; first compound 0.08 µM): 0.946; relative viability ([10]; first compound 0.253 µM): 1.16; relative viability ([10]; first compound 0.8 µM): 0.824; relative viability ([10]; first compound 2.53 µM): 0.925; relative viability ([10]; first compound 8 µM): 1.09; relative viability ([11]; first compound 0.08 µM): 0.588; relative viability ([11]; first compound 0.253 µM): 0.687; relative viability ([11]; first compound 0.8 µM): 0.631; relative viability ([11]; first compound 2.53 µM): 0.507; relative viability ([11]; first compound 8 µM): 0.566; relative viability ([12]; first compound 0.08 µM): 1.37; relative viability ([12]; first compound 0.253 µM): 1.39; relative viability ([12]; first compound 0.8 µM): 1.2; relative viability ([12]; first compound 2.53 µM): 0.78; relative viability ([12]; first compound 8 µM): 1.22; relative viability ([13]; first compound 0.08 µM): 0.725; relative viability ([13]; first compound 0.253 µM): 1; relative viability ([13]; first compound 0.8 µM): 0.715; relative viability ([13]; first compound 2.53 µM): 0.705; relative viability ([13]; first compound 8 µM): 0.665; relative viability ([14]; first compound 0.08 µM): 0.584; relative viability ([14]; first compound 0.253 µM): 0.409; relative viability ([14]; first compound 0.8 µM): 0.579; relative viability ([14]; first compound 8 µM): 0.72; relative viability ([15]; first compound 0.08 µM): 1.26; relative viability ([15]; first compound 0.253 µM): 1.3; relative viability ([15]; first compound 0.8 µM): 1.05; relative viability ([15]; first compound 8 µM): 1.06; relative viability ([16]; first compound 0.08 µM): 0.566; relative viability ([16]; first compound 0.253 µM): 0.648; relative viability ([16]; first compound 0.8 µM): 0.381; relative viability ([16]; first compound 2.53 µM): 0.621; relative viability ([16]; first compound 8 µM): 0.517; relative viability ([17]; first compound 0.08 µM): 0.716; relative viability ([17]; first compound 0.253 µM): 0.683; relative viability ([17]; first compound 0.8 µM): 0.739; relative viability ([17]; first compound 2.53 µM): 0.621; relative viability ([17]; first compound 8 µM): 0.79; relative viability ([18]; first compound 0.08 µM): 0.676; relative viability ([18]; first compound 0.253 µM): 0.729; relative viability ([18]; first compound 0.8 µM): 0.589; relative viability ([18]; first compound 2.53 µM): 0.633; relative viability ([18]; first compound 8 µM): 0.627; relative viability ([19]; first compound 0.08 µM): 0.845; relative viability ([19]; first compound 0.253 µM): 0.801; relative viability ([19]; first compound 0.8 µM): 0.801; relative viability ([19]; first compound 2.53 µM): 0.6; relative viability ([19]; first compound 8 µM): 0.753; relative viability ([20]; first compound 0.08 µM): 0.663; relative viability ([20]; first compound 0.253 µM): 0.69; relative viability ([20]; first compound 0.8 µM): 0.623; relative viability ([20]; first compound 2.53 µM): 0.576; relative viability ([20]; first compound 8 µM): 0.611
